# Laboratory results taken from PubChem BioAssay (NCI).
# “And” between values parts separate entries of the source, which are not always exact repeats. Equal values may be shown once.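 Test compounds were applied to cells in 96-well plates for 48 hours at 5 doses. GI50 marks 50% less growth. At the TGI there is no net growth.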
# How the values were obtained:
# Experiment in all cases: inhibition of tumour cell growth, NCI panel, 48 h
# 786-0 renal = test system: 786-0 renal
# A498 renal = test system: A498 renal
# A549 NSCLC = test system: A549 NSCLC
# ACHN renal = test system: ACHN renal
# BT-549 breast = test system: BT-549 breast
# CAKI-1 renal = test system: CAKI-1 renal
# CCRF-CEM leukemia = test system: CCRF-CEM leukemia
# COLO 205 colon = test system: COLO 205 colon
# DU-145 prostate = test system: DU-145 prostate
# EKVX NSCLC = test system: EKVX NSCLC
# HCC-2998 colon = test system: HCC-2998 colon
# HCT-116 colon = test system: HCT-116 colon
# HCT-15 colon = test system: HCT-15 colon
# HL-60(TB) leukemia = test system: HL-60(TB) leukemia
# HOP-62 NSCLC = test system: HOP-62 NSCLC
# HOP-92 NSCLC = test system: HOP-92 NSCLC
# HS 578T breast = test system: HS 578T breast
# HT29 colon = test system: HT29 colon
# IGROV1 ovarian = test system: IGROV1 ovarian
# K-562 leukemia = test system: K-562 leukemia
# KM12 colon = test system: KM12 colon
# LOX IMVI melanoma = test system: LOX IMVI melanoma
# M14 melanoma = test system: M14 melanoma
# MALME-3M melanoma = test system: MALME-3M melanoma
# MCF7 breast = test system: MCF7 breast
# MDA-MB-231 breast = test system: MDA-MB-231 breast
# MDA-MB-435 = test system: MDA-MB-435
# MDA-N = test system: MDA-N
# MOLT-4 leukemia = test system: MOLT-4 leukemia
# NCI-H226 lung = test system: NCI-H226 lung
# NCI-H23 lung = test system: NCI-H23 lung
# NCI-H460 lung = test system: NCI-H460 lung
# NCI-H522 lung = test system: NCI-H522 lung
# NCI/ADR-RES ovarian = test system: NCI/ADR-RES ovarian
# OVCAR-3 ovarian = test system: OVCAR-3 ovarian
# OVCAR-4 ovarian = test system: OVCAR-4 ovarian
# OVCAR-5 ovarian = test system: OVCAR-5 ovarian
# OVCAR-8 ovarian = test system: OVCAR-8 ovarian
# PC-3 prostate = test system: PC-3 prostate
# RPMI-8226 leukemia = test system: RPMI-8226 leukemia
# RXF 393 renal = test system: RXF 393 renal
# SF-268 CNS = test system: SF-268 CNS
# SF-295 CNS = test system: SF-295 CNS
# SF-539 CNS = test system: SF-539 CNS
# SK-MEL-2 melanoma = test system: SK-MEL-2 melanoma
# SK-MEL-28 melanoma = test system: SK-MEL-28 melanoma
# SK-MEL-5 melanoma = test system: SK-MEL-5 melanoma
# SK-OV-3 ovarian = test system: SK-OV-3 ovarian
# SN12C renal = test system: SN12C renal
# SNB-19 CNS = test system: SNB-19 CNS
# SNB-75 CNS = test system: SNB-75 CNS
# SR leukemia = test system: SR leukemia
# SW-620 colon = test system: SW-620 colon
# T-47D breast = test system: T-47D breast
# TK-10 renal = test system: TK-10 renal
# U251 CNS = test system: U251 CNS
# UACC-257 melanoma = test system: UACC-257 melanoma
# UACC-62 melanoma = test system: UACC-62 melanoma
# UO-31 renal = test system: UO-31 renal
smiles,measurement,setting,value
Cc1ccc(N=Nc2ccc(O)c(CN(C)C)c2)cc1,TGI,786-0 renal,54.7 µM
same,TGI,A498 renal,40.2 µM
same,TGI,A549 NSCLC,49.4 µM
same,TGI,ACHN renal,41.8 µM
same,TGI,BT-549 breast,79.9 µM
same,TGI,CAKI-1 renal,61.3 µM
same,TGI,CCRF-CEM leukemia,63 µM
same,TGI,COLO 205 colon,35.2 µM
same,TGI,DU-145 prostate,47.3 µM
same,TGI,EKVX NSCLC,51.9 µM
same,TGI,HCC-2998 colon,29.5 µM
same,TGI,HCT-116 colon,51.8 µM
same,TGI,HCT-15 colon,50.2 µM
same,TGI,HL-60(TB) leukemia,41.3 µM
same,TGI,HOP-62 NSCLC,26.3 µM
same,TGI,HOP-92 NSCLC,67.7 µM
same,TGI,HS 578T breast,41.9 µM
same,TGI,HT29 colon,32.3 µM
same,TGI,IGROV1 ovarian,35 µM
same,TGI,K-562 leukemia,39.6 µM
same,TGI,KM12 colon,37.9 µM
same,TGI,LOX IMVI melanoma,28.6 µM
same,TGI,M14 melanoma,41.6 µM
same,TGI,MALME-3M melanoma,31.2 µM
same,TGI,MCF7 breast,73.9 µM
same,TGI,MDA-MB-231 breast,56.3 µM
same,TGI,MDA-MB-435,32.3 µM
same,TGI,MDA-N,30.6 µM
same,TGI,MOLT-4 leukemia,53.4 µM
same,TGI,NCI-H226 lung,49.4 µM
same,TGI,NCI-H23 lung,> 100 µM
same,TGI,NCI-H460 lung,33.8 µM
same,TGI,NCI-H522 lung,32.6 µM
same,TGI,NCI/ADR-RES ovarian,53.7 µM
same,TGI,OVCAR-3 ovarian,31.8 µM
same,TGI,OVCAR-4 ovarian,53.5 µM
same,TGI,OVCAR-5 ovarian,29.7 µM
same,TGI,OVCAR-8 ovarian,42.3 µM
same,TGI,PC-3 prostate,54.7 µM
same,TGI,RPMI-8226 leukemia,48 µM
same,TGI,RXF 393 renal,34.2 µM
same,TGI,SF-268 CNS,91.7 µM
same,TGI,SF-295 CNS,33.7 µM
same,TGI,SF-539 CNS,33.3 µM
same,TGI,SK-MEL-2 melanoma,37.7 µM
same,TGI,SK-MEL-28 melanoma,41.1 µM
same,TGI,SK-MEL-5 melanoma,28 µM
same,TGI,SK-OV-3 ovarian,85.3 µM
same,TGI,SN12C renal,> 100 µM
same,TGI,SNB-19 CNS,> 100 µM
same,TGI,SNB-75 CNS,75.1 µM
same,TGI,SR leukemia,> 100 µM
same,TGI,SW-620 colon,70.1 µM
same,TGI,T-47D breast,39.5 µM
same,TGI,TK-10 renal,44.5 µM
same,TGI,U251 CNS,> 100 µM
same,TGI,UACC-257 melanoma,32.3 µM
same,TGI,UACC-62 melanoma,44.3 µM
same,TGI,UO-31 renal,54.1 µM
CCN1C(=O)C(C)S/C1=N\NC(=O)CSc1nc2ccccc2c(=O)n1CC (stereo not drawn),TGI,786-0 renal,> 100 µM
same,TGI,A498 renal,> 100 µM
same,TGI,A549 NSCLC,> 100 µM
same,TGI,ACHN renal,> 100 µM
same,TGI,BT-549 breast,> 100 µM
same,TGI,CAKI-1 renal,> 100 µM
same,TGI,CCRF-CEM leukemia,> 100 µM
same,TGI,COLO 205 colon,> 100 µM
same,TGI,DU-145 prostate,> 100 µM
same,TGI,EKVX NSCLC,> 100 µM
same,TGI,HCC-2998 colon,> 100 µM
same,TGI,HCT-116 colon,> 100 µM
same,TGI,HCT-15 colon,> 100 µM
same,TGI,HL-60(TB) leukemia,> 100 µM
same,TGI,HOP-62 NSCLC,> 100 µM
same,TGI,HS 578T breast,> 100 µM
same,TGI,IGROV1 ovarian,> 100 µM
same,TGI,K-562 leukemia,> 100 µM
same,TGI,KM12 colon,> 100 µM
same,TGI,LOX IMVI melanoma,> 100 µM
same,TGI,M14 melanoma,> 100 µM
same,TGI,MALME-3M melanoma,> 100 µM
same,TGI,MCF7 breast,> 100 µM
same,TGI,MDA-MB-231 breast,> 100 µM
same,TGI,MDA-MB-435,> 100 µM
same,TGI,MDA-N,> 100 µM
same,TGI,MOLT-4 leukemia,> 100 µM
same,TGI,NCI-H226 lung,> 100 µM
same,TGI,NCI-H23 lung,> 100 µM
same,TGI,NCI-H460 lung,20.4 µM
same,TGI,NCI-H522 lung,> 100 µM
same,TGI,NCI/ADR-RES ovarian,> 100 µM
same,TGI,OVCAR-3 ovarian,> 100 µM
same,TGI,OVCAR-4 ovarian,> 100 µM
same,TGI,OVCAR-5 ovarian,> 100 µM
same,TGI,OVCAR-8 ovarian,> 100 µM
same,TGI,PC-3 prostate,> 100 µM
same,TGI,RPMI-8226 leukemia,> 100 µM
same,TGI,RXF 393 renal,> 100 µM
same,TGI,SF-268 CNS,> 100 µM
same,TGI,SF-295 CNS,> 100 µM
same,TGI,SF-539 CNS,> 100 µM
same,TGI,SK-MEL-2 melanoma,> 100 µM
same,TGI,SK-MEL-28 melanoma,> 100 µM
same,TGI,SK-MEL-5 melanoma,> 100 µM
same,TGI,SK-OV-3 ovarian,> 100 µM
same,TGI,SN12C renal,> 100 µM
same,TGI,SNB-19 CNS,> 100 µM
same,TGI,SNB-75 CNS,> 100 µM
same,TGI,SR leukemia,> 100 µM
same,TGI,SW-620 colon,> 100 µM
same,TGI,T-47D breast,> 100 µM
same,TGI,TK-10 renal,> 100 µM
same,TGI,U251 CNS,> 100 µM
same,TGI,UACC-257 melanoma,> 100 µM
same,TGI,UACC-62 melanoma,> 100 µM
same,TGI,UO-31 renal,> 100 µM
CN(C)CCNC(=O)C(C)(C)Oc1ccc(C(=O)c2ccc(Cl)cc2)cc1Cl,GI50,786-0 renal,3.37 µM
same,TGI,786-0 renal,13.6 µM
same,TGI,A498 renal,30.7 µM
same,GI50,A549 NSCLC,12.2 µM
same,TGI,A549 NSCLC,24.6 µM
same,TGI,ACHN renal,23 µM
same,TGI,BT-549 breast,23.9 µM
same,TGI,CAKI-1 renal,26.2 µM
same,GI50,CCRF-CEM leukemia,5.31 µM
same,TGI,CCRF-CEM leukemia,> 77.3 µM
same,GI50,COLO 205 colon,4.41 µM
same,TGI,COLO 205 colon,3.7 µM
same,GI50,DU-145 prostate,2.7 µM
same,TGI,DU-145 prostate,26.1 µM
same,TGI,EKVX NSCLC,23.9 µM
same,TGI,HCC-2998 colon,16.7 µM
same,TGI,HCT-116 colon,20 µM
same,GI50,HCT-15 colon,2.71 µM
same,TGI,HCT-15 colon,7.12 µM and 11.2 µM
same,GI50,HL-60(TB) leukemia,2.82 µM
same,TGI,HL-60(TB) leukemia,> 29.1 µM
same,TGI,HOP-62 NSCLC,23.9 µM
same,TGI,HOP-92 NSCLC,18.1 µM
same,TGI,HS 578T breast,23 µM
same,TGI,HT29 colon,8.18 µM and 9.21 µM
same,TGI,IGROV1 ovarian,25.3 µM
same,GI50,K-562 leukemia,2.42 µM
same,TGI,K-562 leukemia,9.19 µM and > 39 µM
same,TGI,KM12 colon,23 µM
same,GI50,LOX IMVI melanoma,0.0392 µM
same,TGI,LOX IMVI melanoma,20.1 µM
same,GI50,M14 melanoma,1.82 µM
same,TGI,M14 melanoma,3.67 µM and 5.99 µM
same,GI50,MALME-3M melanoma,3.9 µM
same,TGI,MALME-3M melanoma,11.1 µM
same,GI50,MCF7 breast,3.8 µM
same,TGI,MCF7 breast,24.3 µM
same,GI50,MDA-MB-231 breast,2.25 µM
same,TGI,MDA-MB-231 breast,4.93 µM and 23.6 µM
same,TGI,MDA-MB-435,17.2 µM
same,GI50,MDA-N,6.48 µM
same,TGI,MDA-N,19.8 µM
same,GI50,MOLT-4 leukemia,3.26 µM
same,TGI,MOLT-4 leukemia,> 59.8 µM
same,TGI,NCI-H226 lung,29 µM
same,GI50,NCI-H23 lung,4.77 µM
same,TGI,NCI-H23 lung,21.9 µM
same,TGI,NCI-H460 lung,20.4 µM
same,TGI,NCI-H522 lung,28.2 µM
same,TGI,NCI/ADR-RES ovarian,26.1 µM
same,TGI,OVCAR-3 ovarian,25.7 µM
same,TGI,OVCAR-4 ovarian,28 µM
same,TGI,OVCAR-5 ovarian,28.9 µM
same,TGI,OVCAR-8 ovarian,24.5 µM
same,GI50,PC-3 prostate,5.84 µM
same,TGI,PC-3 prostate,24 µM
same,GI50,RPMI-8226 leukemia,3.32 µM
same,TGI,RPMI-8226 leukemia,> 48.7 µM
same,GI50,RXF 393 renal,9.94 µM
same,TGI,RXF 393 renal,21.7 µM
same,TGI,SF-268 CNS,28.7 µM
same,GI50,SF-295 CNS,4.74 µM
same,TGI,SF-295 CNS,22.6 µM
same,TGI,SF-539 CNS,22.2 µM
same,TGI,SK-MEL-2 melanoma,32.6 µM
same,GI50,SK-MEL-28 melanoma,2.63 µM
same,TGI,SK-MEL-28 melanoma,5.14 µM and 3.58 µM
same,GI50,SK-MEL-5 melanoma,1.53 µM
same,TGI,SK-MEL-5 melanoma,6.11 µM and 2.97 µM
same,TGI,SK-OV-3 ovarian,29.6 µM
same,GI50,SN12C renal,3.59 µM
same,TGI,SN12C renal,26.7 µM
same,TGI,SNB-19 CNS,26 µM
same,GI50,SNB-75 CNS,9.71 µM
same,TGI,SNB-75 CNS,24.8 µM
same,GI50,SR leukemia,3.48 µM
same,TGI,SR leukemia,> 100 µM
same,TGI,SW-620 colon,18.3 µM
same,GI50,T-47D breast,5.87 µM
same,TGI,T-47D breast,24.4 µM
same,TGI,TK-10 renal,23.7 µM
same,TGI,U251 CNS,20 µM
same,GI50,UACC-257 melanoma,3.11 µM
same,TGI,UACC-257 melanoma,7.79 µM and 4.84 µM
same,GI50,UACC-62 melanoma,2.81 µM
same,TGI,UACC-62 melanoma,4.29 µM
same,TGI,UO-31 renal,22.8 µM
